The source of these data is patent US20090233993A1, “COMPOSITIONS AND METHODS FOR INHIBITING GSK3 ACTIVITY AND USES THEREOF” (Burnham Institute for Medical Research, priority 2008, published 2009).

The test system of one data set is PKA. Put plainly: PKA inhibitor H89 treatment of FG01-transfected N2aSwe cells. The data set is classed as cell-based, mouse. To be noted: H89 2 μM, 4 hrs, FG01-transfected N2a/Swe cells. The method, then:
After 48 hr incubation, cell media were changed to Opti-MEM (Invitrogen) containing DMSO or a PKA activity inhibitor H89 (2 μM) and cells were incubated for additional 4 hrs. The cell media were used for Aβ immunoprecipitation-Western blotting and cell lysates were subjected to Western blotting for p-CREB (substrate for PKA) and p-GSK3β. As shown, inhibiting PKA activity with H89 prevented serine phosphorylation of CREB and GSK3β by FG01.
N2aSwe cells were transfected with control vector or FG01 and then equally split. Four hours before collection, cells were treated with the GSK-3 inhibitor lithium chloride (5 mM) or sodium chloride (5 mM, as control). Alternatively, cells were treated with a PKA inhibitor H89 at 10 μM or with DMSO for control.

The subject of another data set is FG01. Put plainly: FG01 RNA interference in N2aSwe cells. The data set is classed as cell-based, mouse. An excerpt: Cells were collected for mRNA extraction, reverse-transcription, and PCR amplification with FG01 specific primers to study the knockdown efficiency (upper panel), n=3. Alternatively, cells were lysed and cell lysates subjected to Western blotting for p-CREB, CREB, p-GSK3β, and GSK3β. Aβ in conditioned media was subjected to immunoprecipitation-Western blotting (lower panels). As shown, knockdown of FG01 coincided with a concomitant decrease in GSK3β phosphorylation (inactivation). **: p<0.01. […] Moreover, as PKA is a cAMP-dependent protein kinase, FG01 is likely having this effect through adenylyl cyclase (AC) activation of cAMP.
The mouse FG01 siRNA used was: 5′-[…]-3′ (SEQ ID NO:20). The control siRNA was from Invitrogen. siRNA was transfected into N2a cells using Lipofectamine RNAiMAX reagent (Invitrogen), following the manufacturer's protocol. After FG01 RNA interference, total RNA was extracted from N2a cells by Trizol reagent (Invitrogen). After reverse transcription into first strand cDNA using standard conditions, samples were analyzed independently by real-time PCR using an iCycler iQ with SYBR green supermix (Bio-Rad). The FG01 primer pair used for amplification was: 5′: […] (SEQ ID NO:21) and 3′: […] (SEQ ID NO:22). A pair of β-actin primers served as controls (Zhang et al., 2007).

[1] abbreviates: downregulation of endogenous FG01 in N2aSwe cells.

For the compound `O=S(=O)(NCCNC/C=C/c1ccc(Br)cc1)c1cccc2cnccc12` [H89, reference compound], in the data set with PKA, the “serine phosphorylation of CREB by FG01” value was “prevented” and the “serine phosphorylation of GSK3β by FG01” value was “prevented”.

Take “FG01 siRNA: mouse FG01 siRNA 5′-UACUGUUUGUCAUGCCACUUCUGAU-3′ (SEQ ID NO:20) (listed as RNA, chemistry not given here)”: in the data set with FG01 (setting [1]), the Aβ generation entry is on record as “increased”, the CREB phosphorylation entry was “dramatically reduced” and the GSK-3 activity result is reported as “increased”. Also, the “GSK3β phosphorylation (inactivation)” value in the data set on FG01 (knockdown of FG01 in N2a/Swe cells vs scramble siRNA) was “decrease”.
